Tests used:
[1] = test system: surface CD25 on Karpas299 cell line; experiment: Surface CD25 by flow cytometry after decitabine (Example 6); assay type: cell-based; set-up: dose or concentration left out as unconfirmed; details: in the presence of decitabine
Experimental: After incubation, two parameters were measured: the amount of surface CD25 (as determined by flow cytometry) and the in vitro cytotoxicity of the combinations (as determined by MTS assays).

[2] = test system: surface CD25 on KG-1 cells; experiment: Surface CD25 by flow cytometry (FACS) after Cytarabine (Example 5); assay type: cell-based; details: CD25(+) KG-1 cells (low CD25) incubated with Cytarabine
Experimental: (§1) After incubation, two parameters were measured: the amount of surface CD25 (as determined by flow cytometry) and the in vitro cytotoxicity of the combinations (as determined by CellTiter-Glo® or MTS assays). Cytotoxic synergy was calculated by transforming the cell viability data into fraction affected, and calculating the combination index (Table 1) using the CalcuSyn analysis program.

[3] = test system: surface CD25 on Karpas299 cell line; experiment: as above; assay type: cell-based; details: Karpas299 cell line (high in CD25) incubated with Cytarabine
Experimental: as §1

[4] = test system: IL2Ralpha (CD25) mRNA in KG-1 cells; experiment: CD25 mRNA expression by TaqMan qRT-PCR (Example 9); assay type: cell-based; details: 30 nM Cytarabine
Experimental: (§2) Karpas-299, EOL-1 or KG-1 cells were incubated with 30 nM Cytarabine for 24 hours before mRNA was isolated and reverse-transcribed. cDNA was probed for IL2Ralpha (CD25) by TagMan qRT-PCR. Mean fold change in expression compared to the untreated control was calculated using the ddCT method using the reference gene abl-1. A time-course to measure expression change over 3-4 days was also done in Karpas-299 (high CD25 expressing) and KG-1 cells (low CD25 expressing) under the same conditions, only extending incubation time with Cytarabine.

[5] = test system: IL2Ralpha (CD25) mRNA in Karpas-299 cells; experiment: CD25 mRNA expression by TaqMan qRT-PCR (Example 9); assay type: cell-based; details: Karpas299 cells; 30 nM Cytarabine; over the 72 hour period
Experimental: as §2

[6] = test system: CD25 surface protein on KG-1 cells; experiment: CD25 surface protein, antibodies bound per cell, QuantiBRITE-PE flow cytometry (Example 9); assay type: cell-based, human
From the text: (§3) Cells were then washed and run on a Fortessa X20 flow cytometer.

[7] = test system: CD25 surface protein on Karpas-299 cells; experiment: as above; assay type: cell-based, human
From the text: as §3

advanced melanoma = details: phase III; compared to the standard of care (temozolomide or dacarbazine); cited from earlier work

## Nc1ncn([C@H]2C[C@H](O)[C@@H](CO)O2)c(=O)n1 [Decitabine, 4-Amino-1-(2-deoxy-β-D-erythro-pentofuranosyl)-1,3,5-triazin-2(1H)-one]
[1]
  Amount of CD25 on the cells: no difference

## Nc1ccn([C@@H]2O[C@H](CO)C(O)[C@@H]2O)c(=O)n1 (stereo in doubt) [Cytarabine, 4-amino-1-[(2R,3S,4R,5R)-3,4-dihydroxy-5-(hydroxymethyl)oxolan-2-yl] pyrimidin-2-one]
[2]
  Change in surface CD25 levels (FACS analysis): two-fold increase
[3]
  Change in surface CD25: No increase
[4]; after 24 hours incubation
  Increase in CD25 mRNA expression vs untreated control: 2 fold
[4]; after 48 hours incubation
  Increase in CD25 mRNA expression vs untreated control: 4 fold
[4]; after 96 hours incubation
  Increase in CD25 mRNA expression vs untreated control: 3 fold
[5]
  Effect on CD25 mRNA expression: little effect
[6]; KG-1 cells treated with 30 nM Cytarabine 24 hours (untreated ~200)
  Mean number of CD25 antibodies bound per cell: ~400 antibodies per cell
[6]; KG-1 cells, 30 nM Cytarabine, 24 hours
  Levels of CD25 surface expression: significantly increased
[7]; Karpas299 cells treated with 30 nM Cytarabine 24 hours (untreated the same)
  Mean number of CD25 antibodies bound per cell: ~60000 antibodies per cell
[7]; Karpas299 cells, 30 nM Cytarabine, 24 hour period
  Effect on CD25 surface protein expression: little effect

## tremelimumab: anti-CTLA4 antibody
Advanced melanoma
  Overall survival of patients: did not significantly increase the overall survival
